Earlier results, collected in patent US6855805B2 (priority 1999, dated 2005).

tested on: neuromuscular block; conditions: dose mg/kg: Sux 1.0, Org 9847 1.5, Rocuronium 0.6, Mivacurium 0.2, Vecuronium 0.1, Cisatracurium 0.1

SMILES | Onset Time [s] | Recovery 25% [min] | Recovery 75% [min]
COc1ccc(C[C@@H]2c3cc(OC)c(OC)cc3CC[N@+]2(C)CCC(=O)OCCCCCOC(=O)CC[N@@+]2(C)CCc3cc(OC)c(OC)cc3[C@H]2Cc2ccc(OC)c(OC)c2)cc1OC [Cisatracurium] | 120 to 180 | 45 | 60 to 70
C[N+](C)(C)CCOC(=O)CCC(=O)OCC[N+](C)(C)C [Sux, succinylcholine chloride] | 60 | 5 to 7 | 10
COc1cc2c(cc1OC)[C@@H](Cc1cc(OC)c(OC)c(OC)c1)[N+](C)(CCCOC(=O)CC/C=C/CCC(=O)OCCC[N+]1(C)CCc3cc(OC)c(OC)cc3[C@H]1Cc1cc(OC)c(OC)c(OC)c1)CC2 (stereo partly drawn) [Mivacurium] | 150 | 20 | 27
CC(=O)O[C@H]1C[C@@H]2CC[C@@H]3[C@H](CC[C@@]4(C)[C@H]3C[C@H]([N+]3(C)CCCCC3)[C@@H]4OC(C)=O)[C@@]2(C)C[C@@H]1N1CCCCC1 [Vecuronium] | 120 to 180 | 40 | 60
C=CC[N+]1([C@H]2C[C@H]3[C@@H]4CC[C@H]5C[C@H](O)[C@@H](N6CCOCC6)C[C@]5(C)[C@H]4CC[C@]3(C)[C@H]2OC(C)=O)CCCC1 [Rocuronium] | 80 | 40 | 60
